Columns and labels:
Test in all cases: relative viability (nuclei count vs DMSO), 5 days (fraction); higher = more cells survive
[1] = compound: C1=CC2=NC=CN=C2C=C1/C=C/3\C(=O)NC(=O)S3
Procedure, shortened: (§1)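 MetaXpress counted nuclei in 4× images of lung cancer cell lines that had been fixed, permeabilised and Hoechst-stained in one step. Before that, cells in 1536-well plates were kept overnight at 37 °C, pinned with five √10-spaced library-drug doses on vehicle-anchored plates, and cultured 5 days without medium change. Viability takes treated-well nuclei over vehicle-well nuclei and uses the median across plates. Plates were accepted only at control CV below 25% and at least one doubling.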

[2] = compound: CCN1CCN(c2ccc(Nc3cc(N(C)C(=O)Nc4c(Cl)c(OC)cc(OC)c4Cl)ncn3)cc2)CC1 [BGJ398]
Procedure, shortened: as §1

[3] = compound: C1=CC2=NC=CN=C2C=C1/C=C/3\C(=O)NC(=O)S3 + CC1(C)CCC(c2ccc(Cl)cc2)=C(CN2CCN(c3ccc(C(=O)NS(=O)(=O)c4ccc(N[C@H](CCN5CCOCC5)CSc5ccccc5)c(S(=O)(=O)C(F)(F)F)c4)cc3)CC2)C1 [Navitoclax] (partner 0.5 µM)
Procedure, shortened: (§2)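 Values are medians from duplicate plates. Each reflects relative viability, defined as the nuclei count of treated wells over that of vehicle wells. Lung cancer cell lines in 1536-well plates were pin-tool dosed one day after seeding with one drug alone or with a fixed anchor-drug dose plus five library-drug doses (not always all listed) in √10 steps, then fixed, stained and imaged at 4× after 5 days.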

[4] = compound: C1=CC2=NC=CN=C2C=C1/C=C/3\C(=O)NC(=O)S3 + COc1cc2c(Oc3ccc(NC(=O)C4(C(=O)Nc5ccc(F)cc5)CC4)cc3F)ccnc2cc1OCCCN1CCOCC1 [Foretinib] (partner 0.25 µM)
Procedure, shortened: as §2

Cell Line	relative viability ([1]; 0.02 µM)	relative viability ([1]; 0.06325 µM)	relative viability ([1]; 0.2 µM)	relative viability ([1]; 0.6325 µM)	relative viability ([1]; 2 µM)	relative viability ([2]; 0.01 µM)	relative viability ([2]; 0.03162 µM)	relative viability ([2]; 0.1 µM)	relative viability ([2]; 0.3162 µM)	relative viability ([2]; 1 µM)	relative viability ([3]; first compound 0.02 µM)	relative viability ([3]; first compound 0.06325 µM)	relative viability ([3]; first compound 0.2 µM)	relative viability ([3]; first compound 0.6325 µM)	relative viability ([3]; first compound 2 µM)	relative viability ([4]; first compound 0.02 µM)	relative viability ([4]; first compound 0.06325 µM)	relative viability ([4]; first compound 0.2 µM)	relative viability ([4]; first compound 0.6325 µM)	relative viability ([4]; first compound 2 µM)
NCI-H1650	0.953	0.952	0.974	1	0.975	0.874	0.747	0.909	0.487	0.692	1.23	1.3	1.14	1.14	1.3	1	0.956	1.07	1.13	1.08
NCI-H1395	1.05	0.985	1.06	0.884	0.899	0.853	0.946	0.847	0.589	0.483	1.13	1.42	1.21	1.17	1.02	1.04	1.03	1	0.871	1.03
LU99A	1.07	1.11	0.979	0.871	0.518	0.884	0.95	0.89	0.908	0.792	0.77	0.993	0.746	0.876	0.64	0.727	0.743	0.792	0.822	0.614
NCI-H1355	0.821	0.984	1.05	0.923	0.875	0.943	0.961	1.02	0.971	0.795	0.87	1.01	1.05	1.03	0.951	0.816	0.976	1.02	0.936	0.929
HCC-78	0.9	0.845	1.04	0.979	0.507	0.881	0.911	0.933	1.02	0.86	0.667	0.641	0.741	0.733	0.767	0.54	0.469	0.538	0.534	0.4
HCC-15	1	0.921	0.972	0.921	0.818	1.01	1.01	1.07	1.13	0.887	0.662	0.655	0.746	0.679	0.682	0.981	1.02	1.01	1.03	0.928
EKVX	0.927	0.885	0.987	0.936	0.786	0.865	0.942	1.08	0.871	0.986	0.931	0.865	0.916	0.957	0.822	0.753	0.602	0.773	0.541	0.746
NCI-H2087	0.918	0.925	1.05	0.951	0.926	1.01	1.01	0.966	1.08	1.09	0.88	1.2	1.07	1.04	0.96	1.12	0.974	0.992	0.975	0.931
LK-2	1.02	1.06	1.14	0.896	0.566	0.867	0.776	0.638	0.399	0.263	0.791	1.03	1.04	0.684	0.548	1.06	1.16	1.26	1.03	0.789
NCI-H1437	1.01	0.983	1.04	0.964	0.703	0.978	1.01	1	1	0.832	1.03	1.1	1.12	1.07	0.93	1.19	1.24	1.16	1.25	1.15
COR-L23	0.967	1.15	1.02	0.938	0.976	0.96	1.06	1.12	1.02	1.09	0.919	1.08	1.03	0.946	0.962	0.94	0.961	0.96	0.934	0.979
NCI-H838	0.96	0.957	1.02	0.821	0.776	0.845	0.938	0.984	0.8	0.742	1.1	1.32	1.13	1.02	1.11	1.02	1.08	1	1.02	0.874
A549	0.98	0.999	1.05	0.902	0.697	0.932	0.917	1.03	0.876	0.996	1.24	1.43	1.22	1.02	1.11	0.965	1.05	0.889	0.835	0.984
A-427	0.963	1.14	1.08	0.918	0.975	0.985	0.979	0.967	0.815	0.753	0.935	0.977	0.993	0.934	0.877	1.08	1.11	1.13	1.01	1.06
LCLC-97TM1	0.822	1.02	1.03	0.906	0.214	0.778	1.09	1.02	0.962	0.97	0.483	0.339	0.483	0.425	0.379	0.919	0.908	0.908	0.996	0.688

— the supplement of paper PMC10307832
